Data taken from US11891387B2, “Monoacylglycerol lipase modulators” (Janssen Pharmaceutica NV, priority 2020, dated 2024).

Biological target: human MGL from HeLa cells (Homo sapiens (Human), UniProt Q99685)
Test: MGL in vitro activity assay: cleavage of [glycerol-1,3-3H]-oleyl glycerol, activated carbon filtration
Assay type: biochemical
Details: 300 nM [Glycerol-1,3-3H]-oleyl glycerol, endogenously expressed MGL from HeLa cells, one hour incubation
Method in brief: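 Endogenous human MGL from HeLa cells or homogenates was incubated with compound and 300 nM [glycerol-1,3-3H]-oleyl glycerol for one hour. Released [3H]-glycerol passing an activated carbon filter was counted as the measure of activity. Screening used 10 μM compound, with IC50 top concentration set empirically.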

Chain of human MGL from HeLa cells (Q99685 whole entry): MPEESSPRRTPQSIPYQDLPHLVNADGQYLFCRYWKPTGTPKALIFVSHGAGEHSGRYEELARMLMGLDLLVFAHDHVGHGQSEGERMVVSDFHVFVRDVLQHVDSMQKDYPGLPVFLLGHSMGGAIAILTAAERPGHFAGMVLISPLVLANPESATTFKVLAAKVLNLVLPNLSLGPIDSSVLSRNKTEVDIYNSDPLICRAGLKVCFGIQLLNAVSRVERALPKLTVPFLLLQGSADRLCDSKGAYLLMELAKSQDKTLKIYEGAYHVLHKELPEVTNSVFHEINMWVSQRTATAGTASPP

Row | Structure (SMILES) | IC50
1 | COc1cc(Cl)cc(C(=O)N2CCc3c(nn(C)c3-c3cc(C(F)(F)F)nn3C)[C@@H]2C)c1 [Example 39, (S)-(3-Chloro-5-methoxyphenyl)(2,7-dimethyl-3-(1-methyl-3-(trifluoromethyl)-1H-pyrazol-5-yl)-2,4,5,7-tetrahydro-6H-pyrazolo[3,4-c]pyridin-6-yl)methanone] | 38 nM
2 | Cc1cccc2ncc(C(=O)N3CCc4c(nn(C)c4-c4cc(C(F)(F)F)nn4C)[C@@H]3C)n12 [Example 8, (S)-(2,7-Dimethyl-3-(1-methyl-3-(trifluoromethyl)-1H-pyrazol-5-yl)-2,4,5,7-tetrahydro-6H-pyrazolo[3,4-c]pyridin-6-yl)(5-methylimidazo[1,2-a]pyridin-3-yl)methanone] | 8.9 nM
3 | Cc1cc(C(=O)N2CCc3c(nn(C)c3-c3cc(C(F)(F)F)nn3C)[C@@H]2C)c2cc(F)ccc2n1 [Example 10, (S)-(2,7-Dimethyl-3-(1-methyl-3-(trifluoromethyl)-1H-pyrazol-5-yl)-2,4,5,7-tetrahydro-6H-pyrazolo[3,4-c]pyridin-6-yl)(6-fluoro-2-methylquinolin-4-yl)methanone] | 18 nM
4 | Cc1cccn2ncc(C(=O)N3CCc4c(nn(C)c4-c4cc(C(F)(F)F)nn4C)[C@@H]3C)c12 [Example 7, (S)-(2,7-Dimethyl-3-(1-methyl-3-(trifluoromethyl)-1H-pyrazol-5-yl)-2,4,5,7-tetrahydro-6H-pyrazolo[3,4-c]pyridin-6-yl)(4-methylpyrazolo[1,5-a]pyridin-3-yl)methanone] | 50 nM
5 | COc1ccc(C(=O)N2CCc3c(nn(C)c3-c3cc(C(F)(F)F)nn3C)[C@@H]2C)c(Cl)c1 [Example 42, (S)-(2-Chloro-4-methoxyphenyl)(2,7-dimethyl-3-(1-methyl-3-(trifluoromethyl)-1H-pyrazol-5-yl)-2,4,5,7-tetrahydro-6H-pyrazolo[3,4-c]pyridin-6-yl)methanone] | 100 nM
6 | C[C@H]1c2nn(C)c(-c3cc(C(F)(F)F)nn3C)c2CCN1C(=O)c1nn(C)c2ccccc12 [Example 6, (S)-(2,7-Dimethyl-3-(1-methyl-3-(trifluoromethyl)-1H-pyrazol-5-yl)-2,4,5,7-tetrahydro-6H-pyrazolo[3,4-c]pyridin-6-yl)(1-methyl-1H-indazol-3-yl)methanone] | 37 nM
7 | Cc1c(C(=O)N2CCc3c(nn(C)c3-c3cc(C(F)(F)F)nn3C)[C@@H]2C)ccc2ncsc12 [Example 133, (S)-(2,7-Dimethyl-3-(1-methyl-3-(trifluoromethyl)-1H-pyrazol-5-yl)-2,4,5,7-tetrahydro-6H-pyrazolo[3,4-c]pyridin-6-yl)(7-methylbenzo[d]thiazol-6-yl)methanone] | 24 nM
8 | C[C@H]1c2nn(C)c(-c3ccnn3CC3CC3)c2CCN1C(=O)c1ccc2ncccc2c1 [Example 71, (S)-(3-(1-(Cyclopropylmethyl)-1H-pyrazol-5-yl)-2,7-dimethyl-2,4,5,7-tetrahydro-6H-pyrazolo[3,4-c]pyridin-6-yl)(quinolin-6-yl)methanone] | 7300 nM
9 | Cc1ccc(C(=O)N2[C@@H]3CCC[C@H]2c2nn(C)c(-c4cc(C)nn4C)c2C3)c(F)c1 (stereo in doubt) [Example 72, ((5R,9S)-3-(1,3-Dimethyl-1H-pyrazol-5-yl)-2-methyl-4,5,6,7,8,9-hexahydro-2H-5,9-epiminocycloocta[c]pyrazol-10-yl)(2-fluoro-4-methylphenyl)methanone] | 1130 nM
10 | COc1cccc(C(=O)N2CCc3c(nn(C)c3-c3cnn(C)c3C(F)(F)F)[C@@H]2C)c1Cl [Example 51, (S)-(2-Chloro-3-methoxyphenyl)(2,7-dimethyl-3-(1-methyl-5-(trifluoromethyl)-1H-pyrazol-4-yl)-2,4,5,7-tetrahydro-6H-pyrazolo[3,4-c]pyridin-6-yl)methanone] | 890 nM
11 | Cc1ccc2cc(C(=O)N3CCc4c(nn(C)c4-c4cc(C(F)(F)F)nn4C)[C@@H]3C)c(C)cc2n1 [Example 93, (S)-(2,7-Dimethyl-3-(1-methyl-3-(trifluoromethyl)-1H-pyrazol-5-yl)-2,4,5,7-tetrahydro-6H-pyrazolo[3,4-c]pyridin-6-yl)(2,7-dimethylquinolin-6-yl)methanone] | 1210 nM
12 | Cc1cc(C(=O)N2CCc3c(nn(C)c3-c3cc(C(F)(F)F)nn3C)[C@@H]2C)c2ccccc2n1 [Example 9, (S)-(2,7-Dimethyl-3-(1-methyl-3-(trifluoromethyl)-1H-pyrazol-5-yl)-2,4,5,7-tetrahydro-6H-pyrazolo[3,4-c]pyridin-6-yl)(2-methylquinolin-4-yl)methanone] | 12 nM
13 | C[C@H]1c2nn(C)c(-c3cc(C(F)(F)F)nn3C)c2CCN1C(=O)c1ccc(OC(F)(F)F)cc1Cl [Example 113, (S)-(2-Chloro-4-(trifluoromethoxy)phenyl)(2,7-dimethyl-3-(1-methyl-3-(trifluoromethyl)-1H-pyrazol-5-yl)-2,4,5,7-tetrahydro-6H-pyrazolo[3,4-c]pyridin-6-yl)methanone] | 9900 nM
14 | C[C@H]1c2nn(C)c(-c3cc(C(F)(F)F)nn3C)c2CCN1C(=O)c1cc2scnc2cn1 [Example 122, (S)-(2,7-Dimethyl-3-(1-methyl-3-(trifluoromethyl)-1H-pyrazol-5-yl)-2,4,5,7-tetrahydro-6H-pyrazolo[3,4-c]pyridin-6-yl)(thiazolo[4,5-c]pyridin-6-yl)methanone] | 260 nM
15 | COc1ccc(C(=O)N2CCc3c(nn(C)c3-c3cc(C(F)(F)F)nn3C)[C@@H]2C)c2cccnc12 [Example 14, (S)-(2,7-Dimethyl-3-(1-methyl-3-(trifluoromethyl)-1H-pyrazol-5-yl)-2,4,5,7-tetrahydro-6H-pyrazolo[3,4-c]pyridin-6-yl)(8-methoxyquinolin-5-yl)methanone] | 15 nM
16 | C[C@H]1c2nn(C)c(-c3cc(C(F)(F)F)n(C)n3)c2CCN1C(=O)c1ccc2ncccc2c1 [Example 63, (S)-(2,7-Dimethyl-3-(1-methyl-5-(trifluoromethyl)-1H-pyrazol-3-yl)-2,4,5,7-tetrahydro-6H-pyrazolo[3,4-c]pyridin-6-yl)(quinolin-6-yl)methanone] | 63 nM
17 | Cc1ccc2c(F)c(C(=O)N3CCc4c(nn(C)c4-c4cc(C(F)(F)F)nn4C)[C@@H]3C)ccc2n1 [Example 90, (S)-(2,7-dimethyl-3-(1-methyl-3-(trifluoromethyl)-1H-pyrazol-5-yl)-2,4,5,7-tetrahydro-6H-pyrazolo[3,4-c]pyridin-6-yl)(5-fluoro-2-methylquinolin-6-yl)methanone] | 230 nM
18 | Cc1ccc2c(C)c(C(=O)N3CCc4c(nn(C)c4-c4cc(C(F)(F)F)nn4C)[C@@H]3C)ccc2n1 [Example 92, (S)-(2,7-Dimethyl-3-(1-methyl-3-(trifluoromethyl)-1H-pyrazol-5-yl)-2,4,5,7-tetrahydro-6H-pyrazolo[3,4-c]pyridin-6-yl)(2,5-dimethylquinolin-6-yl)methanone] | 380 nM
19 | Cn1nc(C(F)(F)F)cc1-c1c2c(nn1C)[C@@H]1CCC[C@H](C2)N1C(=O)c1ccc2ncccc2c1 [Example 80, ((5R,9S)-2-Methyl-3-(1-methyl-3-(trifluoromethyl)-1H-pyrazol-5-yl)-4,5,6,7,8,9-hexahydro-2H-5,9-epiminocycloocta[c]pyrazol-10-yl)(quinolin-6-yl)methanone] | 22 nM
